Assay results: patent US20090291910A1, “AGENT AND FOOD FOR PREVENTING/IMPROVING FUNCTIONAL DIGESTIVE DISORDER” (AJINOMOTO CO., INC, priority 2004, published 2009)

Tests used:
stomach emptying [1] = test: gastric emptying rate, phenol red in 5% casein fluid diet; details: oral in 5% casein fluid diet, 30 min; for stomach emptying rate: FIGS. 7A, 7B, 7C
stomach emptying [2] = test: stomach emptying, glass beads distribution in stomach and small intestine; assay type: in vivo, SD rats; details: 1% monosodium glutamate in 5% casein, 10 mL/kg oral; beads 1 hr later, autopsy 30 min later; N=5 vs N=4; FIG. 5
Method: 7-to 9-week-old male SD rats were fasted overnight and applied to the experiment. A test diet was orally administered at a volume of 10 mL/kg and, 1 hr later, about 80 glass beads having a diameter of 1 mm were orally administered. The rats were autopsied 30 min later, and the number of beads present in the stomach and small intestine was counted. The small intestine was divided into 4, and named B1-B4 from the area near the stomach.

[3] = system: plasma 5HT and 5HIAA in portal blood; test: leakage of serotonin and 5HIAA in the portal blood after intragastric administration; assay type: in vivo, SD rats; details: 450 mM MSG 2 mL oral, 0-60 min
Method: Male SD rats (8-week-old) were used. They were bred in a light-dark control room with a 7:00-19:00 light period. […] The catheter was filled with saline containing 10 unit/mL heparin to prevent hematological coagulation in the catheter. Saline and MSG 450 mM solution were each administered orally by 2 mL using an oral sonde. The blood was drawn every 10 min from 10 min before the administration to 60 min after the administration. To prevent unnecessary platelet activation, blood samples were collected with sufficient attention. […] To the separated plasma was rapidly added an equivalent amount of a mixture (adjusted to pH 2) of acetic acid and hydrochloric acid to eliminate protein. The serotonin (5-HT) amount and 5HIAA amount contained in the supernatant were analyzed by an electric chemical detector (ECD-100, manufactured by Accom Inc.). The analysis conditions were as follows.
Using the aforementioned analysis method, serotonin and 5HIAA of stable metabolite thereof of the same sample were quantitated. […] Each was normalized based on the value at 0 min immediately after administration as 100%. The blood collection time immediately after 2 mL intragastric administration was taken as 0 min.

[4] = system: NO release in the stomach mucous membrane; test: NO release in the stomach mucous membrane during intragastric perfusion (NO electrode); assay type: in vivo, SD rat
Method: SD rat was subjected to laparotomy with urethane anesthesia, a small incision was made in the anterior stomach and the small intestine, a 2 mm diameter polyethylene tube was inserted, and the perfusate was introduced and discharged with a Perista Pump. The perfusate was heated to 38° C. and the flow rate was 1 mL/min. The NO electrode was maintained under the lamina muscularis mucosae together with a temperature sensor, saline was perfused in the stomach for 2-3 hr, the released NO value was stabilized, and isotonic MSG solution (150 mM) was perfused during the time zone of 14:00-18:00.

[5] = system: vagus nerve afferent pathway; details: cited from earlier work

In the case of `N[C@@H](CCC(=O)[O-])C(=O)[O-].[Ca+2]` [calcium glutamate], the stomach emptying rate (stomach emptying [1]) is reported as “promote stomach emptying”.

For `N[C@@H](CCC(=O)O)C(=O)O` [glutamic acid], the “distribution of beads in stomach and small intestine versus control group” value (stomach emptying [2]) was “tends to contain a smaller number of beads in the stomach and a large number of beads in the small intestine”.

In the case of `N[C@@H](CCC(=O)O)C(=O)[O-].[Na+]` [monosodium glutamate], the “relative concentration of plasma 5HT in portal blood versus saline administration” value ([3]; FIG. 4A) is reported as “no difference”, the “relative concentration of plasma metabolite 5HIAA in portal blood versus saline administration” value ([3]; FIG. 4B) is reported as “showed an increase beyond the increase by the saline administration group” and the “NO concentration in the stomach mucous membrane” value ([4]; MSG (2.5%) perfusion, FIG. 3) is reported as “confirmed to increase”. The “latent time of increase in released NO” value ([4]; isotonic MSG (2.5%) perfused in the stomach) was roughly 15 min, the “cases with an increase in the released NO” value ([4]; isotonic MSG (2.5%, 150 mM) perfused in the stomach) was 3 cases out of 20 cases and the “stomach emptying degree with the stomach emptying rate of the control group as 100” value (stomach emptying [1]; FIGS. 6A, 6B) was “promoted stomach emptying”. For the same compound, the “activation of the vagus nerve afferent pathway” value ([5]; administration into the stomach and duodenum) was “activates the vagus nerve afferent pathway” and the “activation of the vagus nerve” value ([5]; intravenous and intraportal administration) was “does not activate the vagus nerve”.

For arginine glutamic acid salt, the “comparison of stomach emptying effect with sodium salt” value (stomach emptying [1]; FIGS. 6A, 6B) was “promotes stomach emptying from lower doses as compared to sodium salt” and the “stomach emptying degree with the stomach emptying rate of the control group as 100” value (stomach emptying [1]; FIGS. 6A, 6B) was “promoted stomach emptying”.

For lysine glutamic acid salt, the stomach emptying rate (stomach emptying [1]) was “promote stomach emptying”.
